Results from patent publication US7495027B2, “3-aryl-4-hydroxyfuranone compounds and the human and animal health use thereof” (Wyeth, priority 2003, dated 2009).
Converted amounts (≈) assume the structure as drawn.

Legend:
Streptococci = test: Minimum inhibitory concentration, microdilution broth method, streptococci; format: cell-based; conditions: Mueller-Hinton broth with 5% horse blood, 18-22 hours at 35° C.; for MIC: S. pneumo GC 1894
Method in brief: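 Recent clinical isolates, some resistant to methicillin, penicillin and/or vancomycin, were tested by the broth microdilution method of NCCLS Approved Standard M7-A5 2000. Mueller-Hinton broth served for staphylococci and enterococci, while streptococci received the same broth supplemented with 5% horse blood.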

[1] = biological target: T1, S. aureus Uridine-diphosphate-N-acetylmuramoyl-L-alanine: D-glutamate liease, MurD (Staphylococcus aureus, UniProt Q2FZ92); test: biochemical; conditions: (S) S. aureus enzyme
T1 sequence (Q2FZ92 1-449): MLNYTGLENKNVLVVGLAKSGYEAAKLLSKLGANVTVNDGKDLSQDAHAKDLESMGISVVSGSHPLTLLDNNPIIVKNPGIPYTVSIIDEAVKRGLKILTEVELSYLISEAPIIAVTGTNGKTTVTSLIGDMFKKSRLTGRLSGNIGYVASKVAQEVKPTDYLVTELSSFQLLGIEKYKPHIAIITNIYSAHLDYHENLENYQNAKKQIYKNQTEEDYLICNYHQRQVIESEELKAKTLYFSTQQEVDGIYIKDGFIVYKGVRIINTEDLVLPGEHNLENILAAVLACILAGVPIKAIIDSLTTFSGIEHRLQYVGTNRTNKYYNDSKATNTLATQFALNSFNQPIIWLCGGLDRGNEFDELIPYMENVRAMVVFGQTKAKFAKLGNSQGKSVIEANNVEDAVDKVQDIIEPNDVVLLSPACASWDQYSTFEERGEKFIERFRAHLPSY
Method in brief: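 Test solutions, 10 mg/mL stocks in DMSO, were brought to 100 μg/mL with 50 mM Tris/HCl (pH 8.5). Their inhibition of MurD, the enzyme of the fourth cell wall biosynthesis step, was measured.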

[2] = biological target: E. coli Uridine-diphosphate-N-acetvimuramoyl: L-alanine lipase, MurC (Escherichia coli, UniProt P17952); test: Inhibitory activity against MurC (E. coli); format: biochemical; conditions: (E) E. coli enzyme; for IC50: read-out: MurC IC50 (converted)
Chain of E. coli Uridine-diphosphate-N-acetvimuramoyl: L-alanine lipase, MurC (P17952 whole entry): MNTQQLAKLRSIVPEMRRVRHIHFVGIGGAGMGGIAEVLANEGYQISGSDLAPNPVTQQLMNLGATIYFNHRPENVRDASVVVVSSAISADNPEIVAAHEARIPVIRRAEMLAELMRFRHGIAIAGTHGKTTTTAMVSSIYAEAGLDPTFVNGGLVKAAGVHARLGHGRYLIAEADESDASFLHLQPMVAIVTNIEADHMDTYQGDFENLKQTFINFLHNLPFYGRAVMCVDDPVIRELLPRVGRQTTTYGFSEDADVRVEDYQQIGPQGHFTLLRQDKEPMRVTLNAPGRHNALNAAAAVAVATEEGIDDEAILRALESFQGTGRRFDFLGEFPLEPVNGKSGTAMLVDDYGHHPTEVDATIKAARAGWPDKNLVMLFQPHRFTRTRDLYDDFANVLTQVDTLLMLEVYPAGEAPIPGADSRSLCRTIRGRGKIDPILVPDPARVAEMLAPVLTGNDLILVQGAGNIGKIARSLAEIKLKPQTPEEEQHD

[3] = biological target: E. coli Uridine-diphosphate-N-acetylmuramoyl-L-alanine: D-glutamate liease, MurD (Escherichia coli, UniProt P14900); test: biochemical; conditions: (E) E. coli enzyme
Chain of E. coli Uridine-diphosphate-N-acetylmuramoyl-L-alanine: D-glutamate liease, MurD (P14900 whole entry): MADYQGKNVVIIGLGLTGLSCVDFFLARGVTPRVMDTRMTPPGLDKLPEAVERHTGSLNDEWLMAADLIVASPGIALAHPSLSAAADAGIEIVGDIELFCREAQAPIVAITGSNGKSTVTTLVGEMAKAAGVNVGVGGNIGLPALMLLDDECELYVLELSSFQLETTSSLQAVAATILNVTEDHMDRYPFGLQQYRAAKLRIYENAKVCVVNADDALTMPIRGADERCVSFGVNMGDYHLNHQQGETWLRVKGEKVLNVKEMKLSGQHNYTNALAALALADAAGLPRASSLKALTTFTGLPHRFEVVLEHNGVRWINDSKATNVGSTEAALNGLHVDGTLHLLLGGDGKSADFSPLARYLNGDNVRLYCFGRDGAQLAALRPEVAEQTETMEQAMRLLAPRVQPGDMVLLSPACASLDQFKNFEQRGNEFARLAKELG
Method in brief: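 Compound working solutions reach 100 μg/mL in 50 mM Tris/HCl (pH 8.5) after dilution of 10 mg/mL DMSO stocks; final level in the well not given here. Reaction buffer finals: 2 mM ATP, 50 mM MgCl2, 83 mM Tris/HCl, pH 8.0.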

[4] = biological target: E. coli UDP-N-acetylglucosamine enolpyruvoyl transferase, MurA (Escherichia coli, UniProt P0A749); test: biochemical; conditions: (E) E. coli enzyme
Chain of E. coli UDP-N-acetylglucosamine enolpyruvoyl transferase, MurA (P0A749 whole entry): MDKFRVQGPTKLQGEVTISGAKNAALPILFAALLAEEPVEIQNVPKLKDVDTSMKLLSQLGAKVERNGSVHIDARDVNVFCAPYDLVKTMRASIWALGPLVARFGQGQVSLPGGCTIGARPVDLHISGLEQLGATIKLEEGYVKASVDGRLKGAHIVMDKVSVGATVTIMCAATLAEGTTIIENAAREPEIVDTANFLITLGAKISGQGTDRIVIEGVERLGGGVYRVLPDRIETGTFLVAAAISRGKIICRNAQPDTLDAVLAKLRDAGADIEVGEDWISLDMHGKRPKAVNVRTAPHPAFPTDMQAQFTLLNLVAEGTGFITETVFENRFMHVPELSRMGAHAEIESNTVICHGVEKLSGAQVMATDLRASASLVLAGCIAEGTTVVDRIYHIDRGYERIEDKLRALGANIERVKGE
Method in brief: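 Enzyme in 50 mM Tris/HCl pH 8.0 with 5 mM DTT and 20% glycerol was pre-incubated 10 min at 37° C with test compound in DMSO/water. Tris/BME and assay buffer then started the 1 hr, 37° C reaction, with a baseline 340 nm reading taken at start. Stop solution followed, and colour developed 30 minutes.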

| SMILES | MIC (Streptococci) | IC50 [1] | other results |
| --- | --- | --- | --- |
| O=C1O/C(=C\c2ccccc2-c2ccc(Cl)c(Cl)c2)C(O)=C1c1ccc(Cl)c(Cl)c1 [Example 141] | < 0.125 µg/mL | 6.27 µM |  |
| CN(C)c1ccc(/C=C2\OC(=O)C(c3ccc(C(F)(F)F)cc3)=C2O)c2ccccc12 [Example 81] | 1 µg/mL (≈ 2.35 µM) | > 58.8 µM |  |
| COc1ccccc1-c1ccc(/C=C2\OC(=O)C(c3cccc(Cl)c3)=C2O)cc1C [Example 23] | 1 µg/mL (≈ 2.39 µM) | 23.9 µM |  |
| Cc1cc(/C=C2\OC(=O)C(c3cccc(Cl)c3)=C2O)ccc1-c1ccccc1Cl [Example 30] | 0.25 µg/mL (≈ 0.591 µM) | > 59.1 µM |  |
| CN(C)c1ccc(C=C2OC(=O)C(c3cc(Cl)cc(Cl)c3)=C2O)c2ccccc12 [Example 80] |  |  | MIC S. pneumo GC 1894 (Streptococci): 1 µg/mL (≈ 2.35 µM); MurD IC50 [1]: 13 (S) μg/mL |
| O=C1O/C(=C\c2cccc3ccccc23)C(O)=C1c1ccc(C(F)(F)F)cc1 [Example 71] | 0.5 µg/mL (≈ 1.31 µM) | 62.8 µM | IC50 [2]: 28.8 µM; IC50 [3]: > 65.4 µM |
| Cc1cc(C=C2OC(=O)C(c3cc(Cl)cc(Cl)c3)=C2O)ccc1-c1ccccc1Cl [Example 31] |  |  | MIC S. pneumo GC 1894 (Streptococci): 0.25 µg/mL (≈ 0.546 µM); MurD IC50 [1]: 10 (S) μg/mL |
| O=C1OC(=Cc2cccc3ccccc23)C(O)=C1c1ccc(C=NO)cc1 (mixture of isomers) [Example 73] |  |  | MIC S. pneumo GC 1894 (Streptococci): 64 µg/mL; MurC IC50 [2]: 19 µg/mL; MurD IC50 [1]: >25 (E); >25 (S) μg/mL |
| Cc1ccc(C=C2OC(=O)C(c3ccc(Cl)cc3)=C2O)s1 [Example 14] |  |  | MIC S. pneumo GC 1894 (Streptococci): 64 µg/mL (≈ 201 µM); MurC IC50 [2]: 13 µg/mL; MurD IC50 [1]: >25 (E); >25 (S) μg/mL; MurA IC50 [4]: 5 (E) μg/mL |
| CCOC(=O)c1cccc(C2=C(O)C(=Cc3cccc4ccccc34)OC2=O)c1 [Example 75] |  |  | MIC S. pneumo GC 1894 (Streptococci): 32 µg/mL (≈ 82.8 µM); MurC IC50 [2]: 18 µg/mL; MurD IC50 [1]: >25 (E); >25 (S) μg/mL |
| CN(C)c1ccc(/C=C2\OC(=O)C(c3cc(Cl)cc(Cl)c3)=C2O)c2ccccc12 [Example 79] | 0.5 µg/mL (≈ 1.17 µM) | 32.8 µM |  |
| O=C1O/C(=C\c2cccc(-c3cc(Cl)cc(Cl)c3)c2)C(O)=C1c1cc(Cl)cc(Cl)c1 [Example 136] | 0.25 µg/mL (≈ 0.523 µM) | 20.9 µM | MurC IC50 [2]: 11 µg/mL; IC50 [3]: 12.5 µM |
| COc1cc(/C=C2\OC(=O)C(c3cc(Cl)cc(Cl)c3)=C2O)ccc1-c1ccccc1C(F)(F)F [Example 33] | 0.5 µg/mL (≈ 0.986 µM) | > 49.3 µM |  |
| Cc1ccccc1-c1ccc(/C=C2\OC(=O)C(c3cc(Cl)cc(Cl)c3)=C2O)cc1C [Example 29] | < 0.125 µg/mL | 38.9 µM |  |
| COc1ccccc1-c1ccc(/C=C2\OC(=O)C(c3cc(Cl)cc(Cl)c3)=C2O)cc1C [Example 24] | 0.5 µg/mL (≈ 1.1 µM) | 24.3 µM |  |
| COc1ccccc1-c1ccc(/C=C2\OC(=O)C(c3ccc(Cl)c(Cl)c3)=C2O)cc1OC [Example 20] | 0.5 µg/mL (≈ 1.07 µM) | 40.5 µM | IC50 [2]: 23.4 µM; IC50 [3]: > 53.3 µM |
| COc1cc(/C=C2\OC(=O)C(c3cccc(Cl)c3)=C2O)ccc1-c1ccccc1C(F)(F)F [Example 32] | 0.5 µg/mL (≈ 1.06 µM) | 19 µM |  |
| O=C1O/C(=C\c2cccc3ccccc23)C(O)=C1c1cccc(C=NO)c1 [Example 77] |  |  | MIC S. pneumo GC 1894 (Streptococci): 64 µg/mL (≈ 179 µM); MurC IC50 [2]: 9 µg/mL; MurD IC50 [1]: >25 (S) μg/mL |
| O=C1O/C(=C\C2CCCCC2)C(O)=C1c1cccc(C(F)(F)F)c1 [Example 17] | < 0.125 µg/mL | > 73.9 µM | MurC IC50 [2]: 10 µg/mL |
| O=C1O/C(=C\c2cc(C(F)(F)F)ccc2Cl)C(O)=C1c1ccc(N2CCOCC2)c(F)c1 [Example 142] |  |  | MIC S. pneumo GC 1894 (Streptococci): 8 µg/mL (≈ 17 µM); MurD IC50 [1]: >25 (S) μg/mL |
| O=C1O/C(=C\c2ccc(N3CCOCC3)c3ccccc23)C(O)=C1c1cc(Cl)cc(Cl)c1 [Example 38] | 1 µg/mL (≈ 2.14 µM) | 12.8 µM |  |
| Cc1cc(/C=C2\OC(=O)C(c3cc(Cl)cc(Cl)c3)=C2O)ccc1-c1ccccc1OS(C)(=O)=O [Example 39] |  |  | MIC S. pneumo GC 1894 (Streptococci): 1 µg/mL (≈ 1.93 µM); MurD IC50 [1]: 15 (S) μg/mL |
| COc1cccc(C2=C(O)/C(=C/c3cccc4ccccc34)OC2=O)c1 [Example 72] | 32 µg/mL (≈ 92.9 µM) | > 72.6 µM | IC50 [2]: > 72.6 µM; IC50 [3]: > 72.6 µM |
| CN(C)c1ccc(/C=C2\OC(=O)C(c3ccc(Cl)cc3)=C2O)c2ccccc12 [Example 78] | 2 µg/mL (≈ 5.1 µM) | > 63.8 µM |  |

| SMILES | MIC (Streptococci) | IC50 [1] | other results |
| --- | --- | --- | --- |
| O=C1O/C(=C\c2ccc(N3CCOCC3)c(F)c2)C(O)=C1c1cc(Cl)cc(Cl)c1 [Example 34] |  |  | MIC S. pneumo GC 1894 (Streptococci): 4 µg/mL (≈ 9.17 µM); MurD IC50 [1]: >25 (S) μg/mL |
| O=C1O/C(=C\c2ccc(Cl)cc2)C(O)=C1c1ccc(-c2ccccc2)c(F)c1 [Example 138] | 0.5 µg/mL (≈ 1.27 µM) | 35.6 µM | IC50 [2]: 12.7 µM |
| O=C1O/C(=C\c2ccc(-c3ccccc3)cc2)C(O)=C1c1csc2ccccc12 [Example 143] | 1 µg/mL (≈ 2.52 µM) | 25.2 µM |  |
| O=C1O/C(=C\c2ccccc2-c2ccc(Cl)cc2)C(O)=C1c1ccc(Cl)cc1 [Example 137] | 2 µg/mL (≈ 4.89 µM) | 44 µM | IC50 [2]: 41.5 µM |
| O=C1O/C(=C\c2cccc(C(F)(F)F)c2)C(O)=C1c1ccc2ccccc2c1 [Example 42] | 8 µg/mL (≈ 20.9 µM) | > 65.4 µM | MurC IC50 [2]: 6 µg/mL; MurA IC50 [4]: 20 (E) μg/mL |
| COc1cc(/C=C2\OC(=O)C(c3cccc(Cl)c3)=C2O)ccc1-c1ccccc1Cl [Example 18] | 0.5 µg/mL (≈ 1.14 µM) | 41 µM |  |
| COc1cc(/C=C2\OC(=O)C(c3cc(Cl)cc(Cl)c3)=C2O)ccc1-c1ccccc1C [Example 25] | 0.25 µg/mL (≈ 0.551 µM) | 30.9 µM |  |
| Cc1cc(/C=C2\OC(=O)C(c3cccc(Cl)c3)=C2O)ccc1-c1ccccc1C(F)(F)F [Example 26] | < 0.125 µg/mL | 19.7 µM |  |
| COC(=O)c1ccc(C2=C(O)/C(=C/c3cccc4ccccc34)OC2=O)cc1 [Example 74] | 32 µg/mL (≈ 85.9 µM) | > 67.1 µM | IC50 [2]: 51 µM; IC50 [3]: > 67.1 µM |
| O=C1OC(=CC2CCCCC2)C(O)=C1c1cccc(C(F)(F)F)c1 [Example 16] |  |  | MIC S. pneumo GC 1894 (Streptococci): 0.5 µg/mL (≈ 1.48 µM); MurC IC50 [2]: 7 µg/mL; MurD IC50 [1]: >25 (E); >25 (S) μg/mL; MurA IC50 [4]: >25 (E) μg/mL |
| Cc1ccccc1-c1ccc(/C=C2\OC(=O)C(c3cccc(Cl)c3)=C2O)cc1C [Example 28] | < 0.125 µg/mL | > 62.1 µM |  |
| O=C1O/C(=C\c2cccc(C(F)(F)F)c2)C(O)=C1c1ccc(-c2ccccc2)c(F)c1 [Example 106] | 0.25 µg/mL (≈ 0.586 µM) | 37.5 µM | IC50 [2]: 21.1 µM; IC50 [4]: 21.1 µM |
| COc1ccc(/C=C2\OC(=O)C(c3cc(Cl)cc(Cl)c3)=C2O)c2ccccc12 [Example 36] | 1 µg/mL (≈ 2.42 µM) | 21.8 µM |  |
| O=Cc1cccc(C2=C(O)/C(=C/c3cccc4ccccc34)OC2=O)c1 [Example 76] | 64 µg/mL (≈ 187 µM) | > 73 µM | IC50 [2]: 14.6 µM; IC50 [3]: 67.2 µM |
| O=C1O/C(=C\c2ccc(N3CCOCC3)c3ccccc23)C(O)=C1c1cccc(Cl)c1 [Example 37] | 8 µg/mL (≈ 18.4 µM) | 43.8 µM |  |
| O=C1O/C(=C\c2ccccc2-c2cccc(Cl)c2)C(O)=C1c1cccc(Cl)c1 [Example 140] | 1 µg/mL (≈ 2.44 µM) | 48.9 µM |  |
| O=C1O/C(=C\c2cccc3ccccc23)C(O)=C1c1cc(Cl)cc(Cl)c1 [Example 70] | 0.5 µg/mL (≈ 1.3 µM) | 23.5 µM | IC50 [2]: 13 µM; IC50 [3]: 44.4 µM |
| COc1ccccc1-c1ccc(/C=C2\OC(=O)C(c3cc(Cl)cc(Cl)c3)=C2O)cc1OC [Example 19] | 0.5 µg/mL (≈ 1.07 µM) | 36.2 µM | IC50 [2]: 12.8 µM; IC50 [3]: > 53.3 µM |
| Cc1cc(/C=C2\OC(=O)C(c3cc(Cl)cc(Cl)c3)=C2O)ccc1-c1ccccc1C(F)(F)F [Example 27] | 0.5 µg/mL (≈ 1.02 µM) | 48.9 µM |  |
| COc1cc(/C=C2\OC(=O)C(c3cc(Cl)cc(Cl)c3)=C2O)ccc1-c1ccccc1Cl [Example 21] | 0.5 µg/mL (≈ 1.06 µM) | 16.9 µM |  |
| O=C1O/C(=C\c2ccc(-c3ccccc3)cc2)C(O)=C1c1cccs1 [Example 144] | 2 µg/mL (≈ 5.77 µM) | 57.7 µM |  |
| COc1ccc(C=C2OC(=O)C(c3cccc(Cl)c3)=C2O)c2ccccc12 [Example 35] |  |  | MIC S. pneumo GC 1894 (Streptococci): 2 µg/mL (≈ 5.28 µM); MurD IC50 [1]: 17 (S) μg/mL |
| COc1cc(/C=C2\OC(=O)C(c3cccc(Cl)c3)=C2O)ccc1-c1ccccc1C [Example 22] | 1 µg/mL (≈ 2.39 µM) | 40.6 µM |  |
